Test results published in patent US20050113367A1, “Pharmaceutical composition” (SANKYO COMPANY, LIMITED, priority 2000, published 2005).

Test system: spontaneously hypertensive rats (SHRs)
Assay: Hypotensive effects elicited by co-administration of CS-866 and hydrochlorothiazide (telemetry blood pressure in SHRs)
Format: in vivo, rat
Details: male SHRs, in mmHg (unit assumed)
Source text: Hypotensive Effects Elicited by Co-Administration of CS-866 and Hydrochlorothiazide
Twenty-eight male spontaneously hypertensive rats aged 20 weeks (SHRs, SPF grade, purchased from Hoshino Laboratory Animals) were used. A transmitter of a telemeter (TA11PA-C40, DATA SCIENCES Inc.) was implanted in each SHR for recording blood pressure. After recovery from the surgical operations, blood pressure was monitored in the rats from the age of 24 weeks. The rats were orally given 0.5% carboxymethylceflulose solution (CMC, 2 ml/kg) for 7 successive days (once daily) by gavage. They were divided into 4 groups (7 SHRs per group) so as to give equally averaged blood pressure levels in the groups based on the blood pressure recorded on the 5th and 6th days after the CMC solution was initiated. The rats were orally treated with 0.5% CMC solution (2 ml/kg, control group) or test substance suspended in 0.5% CMC solution (2 ml/kg) for 14 successive days (once daily). Blood pressure was monitored 1 day prior to the drug administration and on the 7th and 14th days after the drug was initiated. The group composition, test substances, doses and blood pressure (the 24 hour mean blood pressure A standard error on the respective monitoring days) are summarized in Tables 1 and 2.
The test substances were hydrochlorothiazide (HCTZ), CS-866, and HCTZ and CS-866. HCTZ was prepared so as to be 10 mg/2 ml of final concentration with 0.5% CMC solution. CS-866 was suspended in 0.5% CMC solution so as to be at a final concentration of 1 mg/2 ml. CS-866 and HCTZ solution was prepared so as to be at a final concentration of [10 mg (HCTZ)+1 mg (CS-866)]/2 ml with 0.5% CMC solution.

[1] = 7th day after administration, oral once daily, HCTZ 10 mg/kg, CS-866 1 mg/kg, or both
[2] = 14th day after administration, oral once daily, HCTZ 10 mg/kg, CS-866 1 mg/kg, or both
[3] = 1 day before administration (baseline), oral, once daily, n=7 per group

Structure (SMILES) | Blood pressure levels (24 hour mean blood pressure ± standard error) [1] | Blood pressure levels (24 hour mean blood pressure ± standard error) [2] | Blood pressure levels (24 hour mean blood pressure ± standard error) [3]
NS(=O)(=O)c1cc2c(cc1Cl)NCNS2(=O)=O [HCTZ, 6-chloro-3,4-dihydro-2H-1,2,4,-benzothiadiazin-7-sulfonamide 1,1-dioxide] | 152 ± 6 | 156 ± 6 | 165 ± 6
CCCc1nc(C(C)(C)O)c(C(=O)OCc2oc(=O)oc2C)n1Cc1ccc(-c2ccccc2-c2nnn[nH]2)cc1 [CS-866, (5-methyl-2-oxo-1,3-dioxolen-4-yl)methyl 4-(1-hydroxy-1-methylethyl)-2-propyl-1-[2′-(1H-tetrazol-5-yl)biphenyl-4-ylmethyl]imidazol-5-carboxylate] | 147 ± 4 | 148 ± 4 | 167 ± 6
